Legend:
Dandelions [1] = test: Field testing control of dandelions in Ontario (Example 5); type: in vivo; conditions: Table 6 (FIG. 6), 200 gpa, rated 10 and 30 days following application
Method: Formulations containing IBA, DTPA, and combinations of IBA with various chelating agents including salts of DTPA, EDTA, ethylenediamine-N,N′-disuccinic acid (EDDS), N-(hydroxyethyl)-ethylenediaminetriacetic acid (HEDTA), and lignosulfonic acid were prepared as detailed in Table 6 the solutions were prepared in water at the concentrations indicated ([…]). The formulations were applied at a rate of 200 gpa onto sections of a plot containing dandelions and other weeds in Ontario, Canada. Injuries to the grass and dandelions were visually inspected and rated 10 days and 30 days following application of the formulations. Performance of the formulations was evaluated based on the percentage of control of the dandelions observed. Injuries to the grass were also rated using a 0-10 scale: 0=no injury; 10=plant dead, severe injury.

buckhorn plantains = test: Field testing control of buckhorn plantain in North Carolina (Example 4); type: in vivo; conditions: Table 5 (FIG. 5)
Method: The formulations were applied at a rate of 200 gpa onto sections of a plot containing buckhorn plantains and other weeds in North Carolina, U.S.A. A second application of the formulations was made 21 days following the initial application. The sections were visually inspected and rated over the course of 56 days following the initial application. Performance of the formulations was evaluated based on the percentage control of the buckhorn plantains observed in each section.

Dandelions [2] = test: Control of dandelions in greenhouse study (Example 2, IBA/EDTA); type: in vivo; conditions: for control on weeds: Table 3 (FIG. 3), greenhouse, 200 gpa, result in words; for effect on weeds at concentrations greater than 5% by weight / herbicidal effect at concentrations lower than 5% by weight: tested alone; for effect on weeds at concentrations greater than 5% by weight: Table 3; for herbicidal effect at concentrations lower than 5% by weight: Table 3 (IBA: Tr 2-4)
Method: (§1) Dandelions and Kentucky Bluegrass were seeded and grown in the greenhouse for at least 10 weeks before treatment. Ready-to-use formulations containing indole-3-butyric acid (IBA) and ethylenediaminetetraacetic acid (EDTA), including ethylenediaminetetraacetic acid tetrasodium salt (EDTA Na4), ethylenediaminetetraacetic acid disodium salt (EDTA Na2), and ethylenediaminetetraacetic acid calcium sodium salt, and combinations of IBA and a chelator were prepared as detailed in Table 3 with the remainder of the formulation being comprised of water. IBA was initially dissolved in KHCO3 when the acid could not be dissolved directly and then diluted in water to the concentration indicated (this is indicated below in Table 3 by the label IBA-K). The prepared formulations were applied to sections of the dandelion and Kentucky Bluegrass plots at a rate of 200 gallons per acre (gpa).
(§2) Injuries to the grass and weeds were visually inspected and rated for 4 weeks using a 0-10 scale: 0=no injury; 10=plant dead. For turfgrass, ratings greater than 3 indicated unacceptable phytotoxicity. The numbers indicate the maximum effect observed on the various plants. When regrowth of the plants following application was observed, it is noted in the table following the overall injury score.

[3] = Solubility of IBA in aqueous solutions (Example 9); type: physicochemical
Excerpt: The solubility of IBA and its salts was investigated in various aqueous solutions under different pH conditions. The effect of chelators such as EDTA and HEDTA on the solubility of IBA was also investigated. The data provided further evidence of the relatively limited water solubility of the IBA acid (<0.1%).

[4] = Dissolving IBA when preparing formulations (Example 2); type: physicochemical; conditions: Treatment 10, 12 and 14 of Table 3
Method: as §1

Kentucky Bluegrass = test: Injury to Kentucky Bluegrass in greenhouse study (Example 2, IBA/EDTA); type: in vivo; conditions: tested alone, Table 3
Method: as §1, §2

Row | Compound | control of the dandelions (Dandelions [1]) | time after which the weeds began to exhibit regrowth (buckhorn plantains) [days] | control on the buckhorn plantains (buckhorn plantains; 200 gpa, second application after 21 days, rated over 56 days) | control on weeds (Dandelions [2]) | regrowth of the weeds (Dandelions [2]; Table 3, after application) | effect on weeds at concentrations greater than 5% by weight (Dandelions [2]) | herbicidal effect at concentrations lower than 5% by weight (Dandelions [2]) | dissolution of a 1% solution under alkaline conditions ([3]; 1% solution of IBA) | pH at which a 1% solution was stable ([3]; 1% solution of IBA) | water solubility ([3]; IBA acid in water) [%] | dissolution of IBA in EDTA-Na4 [4] | injury to the grass at concentrations greater than 5% by weight (Kentucky Bluegrass)
1 | O=C(O)CN(CCN(CC(=O)O)CC(=O)O)CCN(CC(=O)O)CC(=O)O [DTPA, diethylenetriaminepentaacetic acid] | moderate control | > 25 | moderate control |  |  |  |  |  |  |  |  | 
2 | O=C(O)CN(CCN(CC(=O)O)CC(=O)O)CC(=O)O [EDTA, ethylenediaminetetraacetic acid] |  |  |  | low to moderate control | grow back after 14 or 28 DAT | burns the leaves of weeds | limited herbicidal effect |  |  |  |  | 
3 | O=C(O)CCCc1c[nH]c2ccccc12 [IBA, indole-3-butyric acid] | moderate control |  |  | low to moderate control |  | exhibited control of the weeds | limited herbicidal effect | dissolves well | > 6 | < 0.1 | can be dissolved in EDTA-Na4 directly without addition of KHCO3 | severe injury
